Reference: PubChem BioAssay AID2060487 (Molecular Pharmacology Branch, DTP, NCI, 2025)

Test system: 997537-175-T-J1-PDC complex spheroid viability
Assay: Anticancer human tumor 997537-175-T-J1-PDC patient-derived colon adenocarcinoma cell line growth inhibition [GQUAD]
Conditions: for IC50: curve of first compound; for viability, T/C: stronger effect = lower value
From the text: DNA G-quadruplex Stabilizer Agents in Combinations in Complex Spheroids
A high-throughput screen of multi-cell type tumor spheroids was designed to identify active combinations of DNA G-quadruplex stabilizer agents and targeted small molecules. Complex spheroids include a stromal component modeled by human endothelial cells (HUVEC) and fibroblasts modeled by human mesenchymal stem cells (MSCs). The concentration ranges selected for each drug and investigational agent were based upon clinically achievable concentrations if the clinical Cmax of the agent was known.
Compounds. The drugs and investigational agents: pidnarulex (CX-5461; NSC782164), APTO-253 (NSC789042), BRACO-19 (NSC847499), peposertib (NSC802822), ceralasertib (NSC780249), elimusertib (NSC800525), camonsertib (NSC841442), AZD-1390 (NSC803789), olaparib (NSC753686), talazoparib (NSC767125), ART-558 (NSC835418), sotorasib (NSC818433), MRTX-1133 (NSC836407), SN-38 (NSC673596), topotecan (NSC609699), etoposide (NSC141540), doxorubicin (NSC123127), gemcitabine (NSC613327), 5-fluorouracil (NSC19893), paclitaxel (NSC125973), vemurafenib (NSC761431), panobinostat (NSC761190), R-306465 (JNJ-16241199; NSC773264), adavosertib (NSC754352), TP-3654 (NSC805149), carboplatin (NSC241240), KSQ-4279 (NSC840948), and staurosporine (NSC755774) were obtained from the National Cancer Institute (NCI) Developmental Therapeutics Program Chemical Repository (34). The FDA-approved anticancer drug set is available from the NCI Developmental Therapeutics Program. […] The stock solutions were prepared in dimethyl sulfoxide (DMSO, Sigma-Aldrich, St. Louis, MO, cat. D2650) at 800-fold the tested concentration and stored at -70 degrees C prior to their use. All drugs and investigational agents were tested over a range starting from a high concentration at or near the clinical Cmax and decreasing in half-log increments. If the clinical Cmax for an agent had not been determined, the highest concentration tested was 10 microM.
2.3 Cell Culture. All cells were maintained in an incubator at 37 degrees C and 5% CO2 with 95% humidity. The PDC lines were cultured according to standard operating procedures established by the NCI PDMR. All PDCs were thawed and cultured in Matrigel-coated flasks prepared with a working solution of 1X Ham's F-12 nutrient mix, without supplementation (Invitrogen, cat. 11765054), 100 U/mL penicillin-streptomycin (Invitrogen, cat. 15140122), and 2.5% Matrigel (Corning Inc., cat. 354248) for the first three passages. The 857933-349-R-J2-PDC line was cultured in 6C/Colon 1B media, which includes advanced DMEM/F-12 (Thermo Fisher Scientific, cat. 12634028), 10 mM HEPES (Thermo Fisher Scientific, cat. 15630080), 1X GlutaMAX supplement (Thermo Fisher Scientific, cat. 35050061), 0.1 mg/mL primocin (InvivoGen, cat. ant-pm-2), 10% defined fetal bovine serum, heat inactivated (HyClone Laboratories Inc., cat. SH30070.03HI), 50% L-WRN conditioned media (ATCC, cat. CRL-3276), 1.25 mM N-Acetyl-L-cysteine (Sigma-Aldrich, cat. A9165), 10 mM nicotinamide (Sigma-Aldrich, cat. N0636), 1X B-27 supplement (Thermo Fisher Scientific, cat. 17504044), 1X N-2 supplement (Thermo Fisher Scientific, cat. 17502048), 10 microM Y-27632 dihydrochloride (Tocris Bioscience, cat. 1254), and 50 ng/mL human EGF recombinant protein (Thermo Fisher Scientific, cat. PHG0311). The 485176-168-R4-J1-PDC line was cultured in Panc media, which includes all 6C/Colon 1B media components plus 100 ng/mL human FGF-10 (Thermo Fisher Scientific, cat. 100-26), 500 nM SB-431542 (Selleckchem, cat. S1067), and gastrin (Tocris, cat. 3006).
[…]

[1] = second compound 0.0316 µM, first compound 0.0316 µM
[2] = second compound 0.0316 µM, first compound 0.1 µM
[3] = second compound 0.0316 µM, first compound 0.316 µM
[4] = second compound 0.0316 µM, first compound 1 µM
[5] = second compound 0.0316 µM, first compound 3.16 µM
[6] = second compound 0.0316 µM, first compound 10 µM
[7] = second compound 0.1 µM, first compound 0.0316 µM
[8] = second compound 0.1 µM, first compound 0.1 µM
[9] = second compound 0.1 µM, first compound 0.316 µM
[10] = second compound 0.1 µM, first compound 1 µM
[11] = second compound 0.1 µM, first compound 3.16 µM
[12] = second compound 0.1 µM, first compound 10 µM
[13] = second compound 0.316 µM, first compound 0.0316 µM
[14] = second compound 0.316 µM, first compound 0.1 µM
[15] = second compound 0.316 µM, first compound 0.316 µM
[16] = second compound 0.316 µM, first compound 1 µM
[17] = second compound 0.316 µM, first compound 3.16 µM
[18] = second compound 0.316 µM, first compound 10 µM
[19] = second compound 1 µM, first compound 0.0316 µM
[20] = second compound 1 µM, first compound 0.1 µM
[21] = second compound 1 µM, first compound 0.316 µM
[22] = second compound 1 µM, first compound 1 µM
[23] = second compound 1 µM, first compound 3.16 µM
[24] = second compound 1 µM, first compound 10 µM
[25] = second compound 3.16 µM, first compound 0.0316 µM
[26] = second compound 3.16 µM, first compound 0.1 µM
[27] = second compound 3.16 µM, first compound 0.316 µM
[28] = second compound 3.16 µM, first compound 1 µM
[29] = second compound 3.16 µM, first compound 3.16 µM
[30] = second compound 3.16 µM, first compound 10 µM
[31] = second compound 10 µM, first compound 0.0316 µM
[32] = second compound 10 µM, first compound 0.1 µM
[33] = second compound 10 µM, first compound 0.316 µM
[34] = second compound 10 µM, first compound 1 µM
[35] = second compound 10 µM, first compound 3.16 µM
[36] = second compound 10 µM, first compound 10 µM
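Also: spheroids exposed to the agents for 7 days.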
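For viability, T/C in this document: 100% = DMSO vehicle control viability.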

C#Cc1c(F)ccc2cc(O)cc(-c3ncc4c(N5CC6CCC(C5)N6)nc(OCC56CCCN5CC(F)C6)nc4c3F)c12 (stereo unspecified) + CN(C)c1ccc(Nc2c3ccc(NC(=O)CCN4CCCC4)cc3nc3cc(NC(=O)CCN4CCCC4)ccc23)cc1
IC50 (second compound 0.0316 µM): > 10 µM | IC50 (second compound 0.1 µM): > 10 µM | IC50 (second compound 0.316 µM): > 10 µM | IC50 (second compound 1 µM): > 10 µM | IC50 (second compound 3.16 µM): > 10 µM | IC50 (second compound 10 µM): > 10 µM | viability, T/C [1]: 102% | viability, T/C [2]: 97.8% | viability, T/C [3]: 98.9% | viability, T/C [4]: 91.1% | viability, T/C [5]: 87.1% | viability, T/C [6]: 107% | viability, T/C [7]: 97.7% | viability, T/C [8]: 89.4% | viability, T/C [9]: 92.6% | viability, T/C [10]: 65.7% | viability, T/C [11]: 110% | viability, T/C [12]: 106% | viability, T/C [13]: 97.2% | viability, T/C [14]: 104% | viability, T/C [15]: 103% | viability, T/C [16]: 83.4% | viability, T/C [17]: 103% | viability, T/C [18]: 105% | viability, T/C [19]: 89.5% | viability, T/C [20]: 93.3% | viability, T/C [21]: 92% | viability, T/C [22]: 82.9% | viability, T/C [23]: 101% | viability, T/C [24]: 108% | viability, T/C [25]: 69.6% | viability, T/C [26]: 97% | viability, T/C [27]: 103% | viability, T/C [28]: 106% | viability, T/C [29]: 106% | viability, T/C [30]: 124% | viability, T/C [31]: 86.8% | viability, T/C [32]: 101% | viability, T/C [33]: 106% | viability, T/C [34]: 106% | viability, T/C [35]: 114% | viability, T/C [36]: 113%

C=CCn1c(=O)c2cnc(Nc3ccc(N4CCN(C)CC4)cc3)nc2n1-c1cccc(C(C)(C)O)n1 + CN(C)c1ccc(Nc2c3ccc(NC(=O)CCN4CCCC4)cc3nc3cc(NC(=O)CCN4CCCC4)ccc23)cc1
IC50 (second compound 0.0316 µM): 2.1 µM | IC50 (second compound 0.1 µM): 2.16 µM | IC50 (second compound 0.316 µM): 6.68 µM | IC50 (second compound 1 µM): 2.86 µM | IC50 (second compound 3.16 µM): 2.42 µM | IC50 (second compound 10 µM): 5.06 µM | viability, T/C [1]: 104% | viability, T/C [2]: 93% | viability, T/C [3]: 91.8% | viability, T/C [4]: 74.4% | viability, T/C [5]: 35.5% | viability, T/C [6]: 31.7% | viability, T/C [7]: 95.8% | viability, T/C [8]: 85.2% | viability, T/C [9]: 89.1% | viability, T/C [10]: 67.5% | viability, T/C [11]: 41.2% | viability, T/C [12]: 25.6% | viability, T/C [13]: 101% | viability, T/C [14]: 73.8% | viability, T/C [15]: 86.5% | viability, T/C [16]: 71.9% | viability, T/C [17]: 84.2% | viability, T/C [18]: 31.8% | viability, T/C [19]: 83.1% | viability, T/C [20]: 72% | viability, T/C [21]: 82.1% | viability, T/C [22]: 75.8% | viability, T/C [23]: 47.5% | viability, T/C [24]: 26.4% | viability, T/C [25]: 74.3% | viability, T/C [26]: 85.9% | viability, T/C [27]: 88% | viability, T/C [28]: 68.5% | viability, T/C [29]: 45.1% | viability, T/C [30]: 33.3% | viability, T/C [31]: 66.1% | viability, T/C [32]: 92.8% | viability, T/C [33]: 111% | viability, T/C [34]: 74.2% | viability, T/C [35]: 58.5% | viability, T/C [36]: 39.9%

COc1cc(C2c3cc4c(cc3C(OC3OC5COC(C)OC5C(O)C3O)C3COC(=O)C23)OCO4)cc(OC)c1O (stereo unspecified) + CN(C)c1ccc(Nc2c3ccc(NC(=O)CCN4CCCC4)cc3nc3cc(NC(=O)CCN4CCCC4)ccc23)cc1
IC50 (second compound 0.0316 µM): > 10 µM | IC50 (second compound 0.1 µM): > 10 µM | IC50 (second compound 0.316 µM): > 10 µM | IC50 (second compound 1 µM): > 10 µM | IC50 (second compound 3.16 µM): > 10 µM | IC50 (second compound 10 µM): > 10 µM | viability, T/C [1]: 93.8% | viability, T/C [2]: 105% | viability, T/C [3]: 96.5% | viability, T/C [4]: 78.6% | viability, T/C [5]: 74.1% | viability, T/C [6]: 74.7% | viability, T/C [7]: 113% | viability, T/C [8]: 105% | viability, T/C [9]: 101% | viability, T/C [10]: 81.2% | viability, T/C [11]: 95.2% | viability, T/C [12]: 65.7% | viability, T/C [13]: 97.2% | viability, T/C [14]: 96.6% | viability, T/C [15]: 91.4% | viability, T/C [16]: 87.1% | viability, T/C [17]: 92.3% | viability, T/C [18]: 64.8% | viability, T/C [19]: 89.1% | viability, T/C [20]: 110% | viability, T/C [21]: 90.2% | viability, T/C [22]: 75.1% | viability, T/C [23]: 91.2% | viability, T/C [24]: 55.2% | viability, T/C [25]: 78.7% | viability, T/C [26]: 102% | viability, T/C [27]: 76.7% | viability, T/C [28]: 95.2% | viability, T/C [29]: 83.2% | viability, T/C [30]: 72.3% | viability, T/C [31]: 79.7% | viability, T/C [32]: 108% | viability, T/C [33]: 99.9% | viability, T/C [34]: 87.2% | viability, T/C [35]: 89.8% | viability, T/C [36]: 67.4%
